These results are taken from patent US12139492B2 (Endotarget Inc., priority 2021, dated 2024).

Test [1] concerns the target BTK (Homo sapiens, UniProt Q06187). As to the kind of experiment: Degradation of BTK protein in Namalwa cells (Western blot; DC50, Dmax). The note with it: for DC50: cell line not given. (Immunoblotting shows a protein as a band on a membrane.)
Test [2] concerns JeKo-1 cells. As to the kind of experiment: Antiproliferative effect, MTS cell viability assay, JeKo-1 cells. The class given is cell-based. The note with it: Homo sapiens; JeKo-1 mantle cell lymphoma cells; read-out: IC50 (anti-proliferation) JeKO-1 cells. Summed up:
(§1)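 MTS read-out, A490 of formazan from metabolically active cells; compound 0–10 μM (0, 0.001, 0.01, 0.1, 1, 10 μM), 72 h exposure.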
A general note: Tetrazolium assays rely on reduction of a dye to a coloured formazan, in cell work by metabolically active cells.

Test [3] has as its system Mino cells. As to the kind of experiment: Antiproliferative effect, MTS cell viability assay, Mino cells. The class given is cell-based. To be noted: Homo sapiens, MINO, Mino mantle cell lymphoma cells; read-out: IC50 (anti-proliferation) Mino cells. Summed up:
as §1

Where [4] appears, read: read-out: DC50 (BTK degradation), concentration giving 50% reduction of BTK expression level.
The mark [5] stands for this setting: read-out: Dmax (BTK degradation).

Like-named read-outs stand apart in the source and are kept apart here.

Chain of BTK (Q06187 whole entry): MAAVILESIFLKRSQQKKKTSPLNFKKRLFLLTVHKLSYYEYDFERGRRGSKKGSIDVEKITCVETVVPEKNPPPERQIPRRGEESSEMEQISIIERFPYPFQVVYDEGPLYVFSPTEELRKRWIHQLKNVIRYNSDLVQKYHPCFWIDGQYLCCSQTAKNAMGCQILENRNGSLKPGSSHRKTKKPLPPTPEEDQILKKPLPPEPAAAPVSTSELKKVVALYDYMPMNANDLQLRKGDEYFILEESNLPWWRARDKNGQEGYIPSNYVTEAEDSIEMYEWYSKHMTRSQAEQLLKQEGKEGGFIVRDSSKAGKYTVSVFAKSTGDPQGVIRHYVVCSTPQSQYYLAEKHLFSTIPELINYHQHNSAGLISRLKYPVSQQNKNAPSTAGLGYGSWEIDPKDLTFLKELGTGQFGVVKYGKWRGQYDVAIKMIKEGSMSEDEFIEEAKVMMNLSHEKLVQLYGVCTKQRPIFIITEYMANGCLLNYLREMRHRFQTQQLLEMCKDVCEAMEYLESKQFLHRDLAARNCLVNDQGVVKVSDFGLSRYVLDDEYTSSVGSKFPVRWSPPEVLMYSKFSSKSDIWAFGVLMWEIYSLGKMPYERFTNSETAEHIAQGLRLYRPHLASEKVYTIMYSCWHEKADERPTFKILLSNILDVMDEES

As a reminder, the DC50 is the midpoint of the concentration-degradation curve. As a reminder, the Dmax is the largest share of the target that was removed. On to `Nc1ncnc2c1c(-c1ccc(Oc3ccccc3)cc1)nn2C1CCN(CCN2CCN(CCSc3ccc4c(c3)C(=O)N(C3CCC(=O)NC3=O)C4=O)CC2)CC1` (stereo not drawn) [Compound 465, 5-((2-(4-(2-(4-(4-amino-3-(4-phenoxyphenyl)-1H-pyrazolo(3,4-d)pyrimidin-1-yl)piperidin-1-yl)ethyl)piperazin-1-yl)ethyl)thio)-2-(2,6-dioxopiperidin-3-yl)isoindoline-1,3-dione], for which, in test [1] (setting [4]), the 50% degradation concentration (DC50) was 10 to 50 nM. Besides, the Dmax in test [1] (setting [5]) was above 90%. Also, the IC50 in test [2] and in test [3] was 1000 to 10000 nM throughout.
`Nc1ncnc2c1c(-c1ccc(Oc3ccccc3)cc1)nn2C1CCN(CCN2CCN(CCCSc3ccc4c(c3)C(=O)N(C3CCC(=O)NC3=O)C4=O)CC2)CC1` (stereo not drawn) [Compound 467, 5-((3-(4-(2-(4-(4-amino-3-(4-phenoxyphenyl)-1H-pyrazolo[3,4-d]pyrimidin-1-yl)piperidin-1-yl)ethyl)piperazin-1-yl)propyl)thio)-2-(2,6-dioxopiperidin-3-yl)isoindoline-1,3-dione]: the DC50 in test [1] (setting [4]) lay within 10 to 50 nM. In addition, the Dmax in test [1] (setting [5]) was above 90%. The IC50 in test [2] and in test [3] was 1000 to 10000 nM each time.
Regarding `NC1=NC=NC2C1C(c1ccc(Oc3ccccc3)cc1)=NN2[C@@H]1CCCN(C(=O)N2CC(C3CN(c4ccc5c(c4)C(=O)N(C4CCC(=O)NC4=O)C5=O)C3)C2)C1` (stereo partly drawn) [Compound 497, 5-(1′-((3R)-3-(4-amino-3-(4-phenoxyphenyl)-3a,7a-dihydro-1H-pyrazolo[3,4-d]pyrimidin-1-yl)piperidine-1-carbonyl)-[3,3′-biazetidin]-1-yl)-2-(2,6-dioxopiperidin-3-yl)isoindoline-1,3-dione], in test [1] (setting [4]), the DC50 lay within 10 to 50 nM. For the same compound, in test [1] (setting [5]), the Dmax is above 90%. For the same compound, the IC50 in test [2] and in test [3] was below 1000 nM throughout.
`Nc1ncnc2c1c(-c1ccc(Oc3ccccc3)cc1)nn2C1CCN(CC2CCN(CC3CCN(c4ccc5c(c4)C(=O)N(C4CCC(=O)NC4=O)C5=O)CC3)C2)CC1` (stereo not drawn) [Compound 445, 5-(4-((3-((4-(4-amino-3-(4-phenoxyphenyl)-1H-pyrazolo(3,4-d)pyrimidin-1-yl)piperidin-1-yl)methyl)pyrrolidin-1-yl)methyl)piperidin-1-yl)-2-(2,6-dioxopiperidin-3-yl)isoindoline-1,3-dione]: in test [1] (Namalwa B lymphocyte cells, various concentrations, 24 hours, Western blot), the “degradation of BTK protein” value is given as “dose-dependent degradation”. Also, in test [1] (setting [4]), the DC50 is 10 to 50 nM. Moreover, the Dmax in test [1] (setting [5]) was above 90%. In addition, the IC50 in test [2] and in test [3] was 1000 to 10000 nM throughout.
The compound `NC(=O)c1c(-c2ccc(Oc3ccccc3)cc2)nn2c1NCC[C@H]2C1CCN(C(=O)N2CCC(CC3CCN(c4ccc5c(c4)C(=O)N(C4CCC(=O)NC4=O)C5=O)CC3)CC2)CC1` (stereo partly drawn) [Compound 293, (7S)-7-(1-(4-((1-(2-(2,6-dioxopiperidin-3-yl)-1,3-dioxoisoindolin-5-yl)piperidin-4-yl)methyl)piperidine-1-carbonyl)piperidin-4-yl)-2-(4-phenoxyphenyl)-4,5,6,7-tetrahydropyrazolo[1,5-a]pyrimidine-3-carboxamide] returned a Dmax in test [1] above 90%. This compound also gave a DC50 in test [1] (BTK degradation) of 10 to 50 nM. Moreover, the IC50 in test [2] is 1000 to 10000 nM; in test [3] it was below 1000 nM.
Turning to `Nc1ncnc2c1c(-c1ccc(Oc3ccccc3)cc1)nn2C1CCN(CCCN2CCC(CN3CCN(c4ccc(N5CCC(=O)NC5=O)cc4)CC3)C2)CC1` (stereo not drawn) [Compound 551, 1-(4-(4-((1-(3-(4-(4-amino-3-(4-phenoxyphenyl)-1H-pyrazolo[3,4-d]pyrimidin-1-yl)piperin-1-yl)propyl)pyrrolidin-3-yl)methyl)piperazin-1-yl)phenyl)dihydropyrimidine-2,4(1H,3H)-dione], in test [1] (setting [4]), the DC50 fell in the range of 10 to 50 nM. Moreover, in test [1] (setting [5]), the Dmax was above 90%. The IC50 in test [2] and in test [3] was below 1000 nM each time.
For `NC(=O)c1c(-c2ccc(Oc3ccccc3)cc2)nn2c1NCC[C@H]2C1CCN(CC2CCN(C(=O)N3CCC(C4CCN(c5ccc6c(c5)CN(C5CCC(=O)NC5=O)C6=O)CC4)CC3)CC2)CC1` (stereo partly drawn) [Compound 406, (7S)-7-(1-((1-(1′-(2-(2,6-dioxopiperidin-3-yl)-1-oxoisoindolin-5-yl)-[4,4′-bipiperidine]-1-carbonyl)piperidin-4-yl)methyl)piperidin-4-yl)-2-(4-phenoxyphenyl)-4,5,6,7-tetrahydropyrazolo[1,5-a]pyrimidine-3-carboxamide], in test [1] (setting [4]), the DC50 was below 10 nM. The Dmax in test [1] (setting [5]) is above 90%. Besides, the IC50 in test [2] was 1000 to 10000 nM; in test [3], below 1000 nM.
`NC(=O)c1c(-c2ccc(Oc3ccccc3)cc2)nn2c1NCCC2C1CCN(CC2CCN(C(=O)N3CCN(CC4CCN(c5ccc6c(c5)C(=O)N(C5CCC(=O)NC5=O)C6=O)CC4)CC3)CC2)CC1` (stereo not drawn) [Compound 371] gave a Dmax in test [1] above 90%. The compound also yielded a DC50 in test [1] (BTK degradation) of 10 to 50 nM. For the same compound, the IC50 in test [2] and in test [3] was below 1000 nM in each case.
As to `Nc1ncnc2c1c(-c1ccc(Oc3ccccc3)cc1)nn2C1CCN(C[C@H]2CCN(CC3CN(CC4CN(c5ccc6c(c5)C(=O)N(C5CCC(=O)NC5=O)C6=O)C4)C3)C2)CC1` (stereo partly drawn) [Compound 427a, 5-(3-((3-(((R)-3-((4-(4-amino-3-(4-phenoxyphenyl)-1H-pyrazolo[3,4-d]pyrimidin-1-yl)piperidin-1-yl)methyl)pyrrolidin-1-yl)methyl)azetidin-1-yl)methyl)azetidin-1-yl)-2-(2,6-dioxopiperidin-3-yl)isoindoline-1,3-dione], the DC50 in test [1] (setting [4]) was above 50 nM. Besides, the Dmax in test [1] (setting [5]) is above 90%. Also, the IC50 in test [2] and in test [3] was 1000 to 10000 nM each time.
`Nc1ncnc2c1c(-c1ccc(Oc3ccccc3)cc1)nn2C1CCN(C2CCN(CCCN3CCC(c4ccc5c(c4)C(=O)N(C4CCC(=O)NC4=O)C5=O)CC3)CC2)CC1` (stereo not drawn) [Compound 223, 5-(1-(3-(4-(4-amino-3-(4-phenoxyphenyl)-1H-pyrazolo[3,4-d]pyrimidin-1-yl)-[1,4′-bipiperidin]-1′-yl)propyl)piperidin-4-yl)-2-(2,6-dioxopiperidin-3-yl)isoindoline-1,3-dione] displayed a Dmax in test [1] above 75%. Also, the DC50 in test [1] (BTK degradation) lay in the range of 10 to 50 nM. The IC50 in test [2] and in test [3] was 1000 to 10000 nM each time.
Compound `NC(=O)c1c(-c2ccc(Oc3ccccc3)cc2)nn2c1NCCC2C1CCN(C(=O)N2CCN(CC3CCN(c4ccc5c(c4)CN(C4CCC(=O)NC4=O)C5=O)CC3)CC2)CC1` (stereo not drawn) [Compound 274, 7-(1-(4-((1-(2-(2,6-dioxopiperidin-3-yl)-1-oxoisoindolin-5-yl)piperidin-4-yl)methyl)piperazine-1-carbonyl)piperidin-4-yl)-2-(4-phenoxyphenyl)-4,5,6,7-tetrahydropyrazolo[1,5-a]pyrimidine-3-carboxamide] displayed a Dmax in test [1] above 90%. Further, the DC50 in test [1] (BTK degradation) was below 10 nM. The IC50 in test [2] and in test [3] was below 1000 nM in each case.
On to `NC(=O)c1c(-c2ccc(Oc3ccccc3)cc2)nn2c1NCCC2C1CCN(C2CCN(C(=O)N3CCN(CC4CCN(c5ccc6c(c5)CN(C5CCC(=O)NC5=O)C6=O)CC4)CC3)CC2)CC1` (stereo not drawn) [Compound 352, 7-(1′-(4-((1-(2-(2,6-dioxopiperidin-3-yl)-1-oxoisoindolin-5-yl)piperidin-4-yl)methyl)piperazine-1-carbonyl)-[1,4′-bipiperidin]-4-yl)-2-(4-phenoxyphenyl)-4,5,6,7-tetrahydropyrazolo[1,5-a]pyrimidine-3-carboxamide], for which the maximal degradation (Dmax) in test [1] is above 90%. The compound also showed a DC50 in test [1] (BTK degradation) below 10 nM. For the same compound, the results for the IC50 in test [2] and in test [3] were 1000 to 10000 nM and below 1000 nM, respectively.
In the same order, the values of `Nc1ncnc2c1c(-c1ccc(Oc3ccccc3)cc1)nn2C1CCN(C2CCN(C(=O)N3CCC(CCC4CCN(c5ccc6c(c5)C(=O)N(C5CCC(=O)NC5=O)C6=O)CC4)CC3)CC2)CC1` (stereo not drawn) [Compound 255, 5-(4-(2-(1-(4-(4-amino-3-(4-phenoxyphenyl)-1H-pyrazolo[3,4-d]pyrimidin-1-yl)-[1,4′-bipiperidine]-1′-carbonyl)piperidin-4-yl)ethyl)piperidin-1-yl)-2-(2,6-dioxopiperidin-3-yl)isoindoline-1,3-dione] are above 90%, 10 to 50 nM, 1000 to 10000 nM and below 1000 nM.
In the case of `Nc1ncnc2c1c(-c1ccc(Oc3ccccc3)cc1)nn2C1CCN(C2CCN(CCCC#Cc3ccc(N4CCC(=O)NC4=O)cc3)CC2)CC1` [Compound 534, 1-(4-(5-(4-(4-amino-3-(4-phenoxyphenyl)-1H-pyrazolo[3,4-d]pyrimidin-1-yl)-[1,4′-bipiperidin]-1′-yl)pent-1-yn-1-yl)phenyl)dihydropyrimidine-2,4(1H,3H)-dione], the DC50 in test [1] (setting [4]) is above 50 nM. Also, the Dmax in test [1] (setting [5]) is above 50%. Besides, the IC50 in test [2] and in test [3] was above 10000 nM in each case.
Consider `Nc1ncnc2c1c(-c1ccc(Oc3ccccc3)cc1)nn2C1CCN(CC2CN(CC3CN(c4ccc5c(c4)CN(C4CCC(=O)NC4=O)C5=O)C3)C2)CC1` (stereo not drawn) [Compound 442, 3-(5-(3-((3-((4-(4-amino-3-(4-phenoxyphenyl)-1H-pyrazolo[3,4-d]pyrimidin-1-yl)piperidin-1-yl)methyl)azetidin-1-yl)methyl)azetidin-1-yl)-1-oxoisoindolin-2-yl)piperidine-2,6-dione], for which, in test [1] (setting [5]), the Dmax is below 50%. In addition, the IC50 in test [2] and in test [3] was above 10000 nM each time.
